16 compounds from patent publication US20260217686A1, “N-Myristoyltransferase Inhibitors And Methods Of Use” (Seattle Children's Hospital (d/b/a Seattle Children's …, priority 2022, published 2026) can be followed below.

One may read the IC50 as the midpoint of a concentration-inhibition curve. Read a high IC50 as lower potency.

Structures are written as SMILES. A value given as a limit tells only on which side of the number the result lay.

T1 sequence (A5K1A2 entry or part of it): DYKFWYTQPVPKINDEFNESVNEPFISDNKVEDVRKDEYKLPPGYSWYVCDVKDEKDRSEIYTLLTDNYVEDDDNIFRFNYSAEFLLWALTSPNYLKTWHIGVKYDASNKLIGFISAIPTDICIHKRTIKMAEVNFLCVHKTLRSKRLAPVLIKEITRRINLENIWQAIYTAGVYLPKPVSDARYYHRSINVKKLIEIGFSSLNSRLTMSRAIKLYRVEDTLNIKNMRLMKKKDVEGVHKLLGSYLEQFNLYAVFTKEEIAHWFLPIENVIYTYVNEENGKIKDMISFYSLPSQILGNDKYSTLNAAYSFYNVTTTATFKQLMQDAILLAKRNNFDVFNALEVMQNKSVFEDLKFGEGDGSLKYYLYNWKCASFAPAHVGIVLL

One experiment addresses T1, PvNMT (Plasmodium vivax, UniProt A5K1A2).
T1 construct: Gly-Pro stays on the protein after cleavage) (N, cleaved yes); host or cells: E. coli Rosetta 2 (DE3) pRARE
As to the kind of experiment: biochemical. It counts as biochemical. As to conditions: Table 1; mean values of two or more determinations. From the text: NMT activity was indirectly measured through the detection of free CoA by the thiol-reactive probe 7-diethylamino-3-(4′-maleimidylphenyl)-4-methylcoumarin (CPM).
This study aimed to identify NMT is with high selectivity for the P. vivax enzyme compared with human NMTs and high potency against the different stages of the P. vivax parasite. For this purpose, a structure-guided approach was applied using previously reported NMT inhibitors as scaffolds to develop a new generation of PvNMT-targeting compounds. The NMT activity of these inhibitors was first measured using biochemical assays through the detection of free CoA by the thiol-reactive probe 7-diethylamino-3-(4′-maleimidylphenyl)-4-methylcoumarin (CPM). Their antiparasitic activity were further evaluated by measuring blood-stage parasite load and inhibition of P. vivax liver-stage schizont and hypnozoite infection. […] Cytotoxicity was assessed in the human hepatoma HepG2 cell line. Synchronized P. falciparum NF54 ring-stage parasites were used for measuring blood-stage parasite load. […] In vitro experiments were repeated at least twice. A single concentration of each inhibitor was initially used to evaluate the inhibition of P. vivax liver stage schizont and hypnozoite infection, followed by the determination of the dose-response relationship.
To measure the activity of the purified PvNMT an assay was adapted from the literature. […] Working stock solutions were made fresh adding DMSO for final concentrations of either 1% or 5% DMSO. […] The plate was incubated for 30 min at room temperature. The enzymatic reaction was initiated by adding 50 μL of reaction substrate containing 10 µM myrCoA and PfARF, as well as 8 μM CPM. Fluorescent readings were taken on a Spectra M2 plate reader (Molecular Devices) with excitation at 385 nm and emission at 485 nm. Fluorescent intensity was measured continuously in one-minute intervals for 45 minutes. Background fluorescence and noise were determined by replacing each constituent of the reaction individually with assay buffer containing 1% DMSO and values were deducted from experimental samples. The enzymatic reactions were set up with varying pHs (6.0-8.5) of the assay buffer to determine optimal reaction conditions with minimal background and off target reactions. In lieu of compound, 10 μL of 10% DMSO/H2O was added to each well. Fluorescence signal was obtained continuously for 45 min. […] IC50 calculations were calculated using Prism (GraphPad Software, Inc).
The compound `c1cncc(CCOc2ccccc2-c2cccc(N3CCNCC3)c2)c1` [Compound 12i, 1-(2′-(2-(pyridin-3-yl)ethoxy)-[1,1′-biphenyl]-3-yl)piperazine] gave an IC50 of 1540 nM.

Compound `Fc1ccc(-c2cccc(N3CCNCC3)c2)c(OCCc2cccnc2)c1` [Compound 12k, 1-(4′-fluoro-2′-(2-(pyridin-3-yl)ethoxy)-[1,1′-biphenyl]-3-yl)piperazine] returned an IC50 of 3120 nM.

In the case of `Cc1n[nH]c(C)c1CCOc1cccnc1-c1cccc(N2CCNCC2)c1` [Compound 12m, 1-(3-(3-(2-(3,5-dimethyl-1H-pyrazol-4-yl)ethoxy)pyridin-2-yl)phenyl)piperazine], the IC50 was 12500 nM.

Consider `Cc1n[nH]c(C)c1CCOc1cccnc1-c1ccnc(N2CCNCC2)c1` [Compound 12o], for which the concentration for half-maximal inhibition (IC50) stood at 3120 nM.

Take `Cc1nn(C)c(C)c1CCOc1ccccc1-c1cc(N2CCNCC2)ncn1` [Compound 16a, 4-(piperazin-1-yl)-6-(2-(2-(1,3,5-trimethyl-1H-pyrazol-4-yl)ethoxy)phenyl)pyrimidine]: the half-maximal inhibitory concentration (IC50) was found to be 9390 nM.

For the compound `c1cncc(CCOc2ccccc2-c2cc(N3CCNCC3)ncn2)c1` [Compound 16c, 4-(piperazin-1-yl)-6-(2-(2-(pyridine-3-yl)ethoxy)phenyl)pyrimidine], the IC50 is more than 40000 nM.

Regarding `Fc1ccc(-c2cc(N3CCNCC3)ncn2)c(OCCc2cccnc2)c1` [Compound 16d, 4-(4-fluoro-2-(2-(pyridine-3-yl)ethoxy)phenyl)-6-(piperazin-1-yl)pyrimidine], the IC50 stood at 3390 nM.

`Cc1n[nH]c(C)c1CCOc1cc(F)ccc1-c1cc(N2CCNCC2)ncn1` [Compound 16e, 4-(2-(2-(3,5-dimethyl-1H-pyrazol-4-yl)ethoxy)-4-fluorophenyl)-6-(piperazin-1-yl)pyrimidine] had a concentration for half-maximal inhibition (IC50) of 5070 nM.

As to `Cc1n[nH]c(C)c1CCOc1ccccc1-c1cc(N2CCNCC2)ncn1` [Compound 16f, 4-(2-(2-(3,5-dimethyl-1H-pyrazol-4-yl)ethoxy)phenyl)-6-(piperazin-1-yl)pyrimidine], inhibition was half-maximal at 14000 nM (IC50).

The same experiment, now with this note: Table 2.
For the compound `CN(C)CCOc1cccc(-c2ncccc2OCCc2cccnc2)c1` [Compound 26d, N,N-dimethyl-2-(3-(3-(2-(pyridin-3-yl)ethoxy)pyridin-2-yl)phenoxy)ethan-1-amine], half-maximal inhibition (IC50) required 14800 nM.

`CN(C)CCOc1cccc(-c2ccccc2OCCc2cccnc2)c1` [Compound 26e, N,N-dimethyl-2-((2′-(2-(pyridin-3-yl)ethoxy)-[1,1′-biphenyl]-3-yl)oxy)ethan-1-amine] displayed a 50% inhibitory concentration (IC50) of 12800 nM.

Compound `Cc1n[nH]c(C)c1CCOc1cccnc1-c1cccc(OCCN(C)C)c1` [Compound 26g, 2-(3-(3-(2-(3,5-dimethyl-1H-pyrazol-4-yl)ethoxy)pyridin-2-yl)phenoxy)-N,N-dimethylethan-1-amine] had a half-inhibitory concentration (IC50) of 19400 nM.

`Cc1n[nH]c(C)c1CCOc1ccccc1-c1cccc(OCCN(C)C)c1` [Compound 26h, 2-((2′-(2-(3,5-dimethyl-1H-pyrazol-4-yl)ethoxy)-[1,1′-biphenyl]-3-yl)oxy)-N,N-dimethylethan-1-amine] returned a half-inhibitory concentration (IC50) of 1560 nM.

Compound `Cc1nn(C)c(C)c1CCOc1ccc2ccccc2c1-c1cccc(OCCN(C)C)c1` [Compound 30b, N,N-dimethyl-2-(3-(2-(2-(1,3,5-trimethyl-1H-pyrazol-4-yl)ethoxy)naphthalen-1-yl)phenoxy)ethan-1-amine] showed a concentration for half-maximal inhibition (IC50) of 19800 nM.

With `CN(C)CCOc1cccc(-c2c(OCCc3cccnc3)ccc3ccccc23)c1` [Compound 30d, N,N-dimethyl-2-(3-(2-(2-(pyridin-3-yl)ethoxy)naphthalen-1-yl)phenoxy)ethan-1-amine], the half-maximal inhibitory concentration (IC50) came to 7210 nM.

`Cc1n[nH]c(C)c1CCOc1ccc2ccccc2c1-c1ccnc(N2CCNCC2)c1` [Compound 30e, 1-(4-(2-(2-(3,5-dimethyl-1H-pyrazol-4-yl)ethoxy)naphthalen-1-yl)pyridin-2-yl)piperazine] gave an IC50 of 2880 nM.
